pIC50: −log10 of the molar value.
Tests used:
Beta-secretase 1 [1] = target: T1, Beta-secretase 1 (Homo sapiens, UniProt P56817); assay: Binding affinity to BACE1 at 2 mM by surface plasmon resonance assay
Beta-secretase 1 [2] = target: T1, Beta-secretase 1; assay: Inhibition of BACE1 assessed as amyloid beta secretion by cell based assay
[3] = target: Voltage-gated inwardly rectifying potassium channel KCNH2 (Homo sapiens, UniProt Q12809); assay: Inhibition of human ERG
[4] = Genotoxicity in Salmonella Typhimurium by Ames test; type: toxicity; details: salmonella enterica subsp. enterica serovar typhimurium
[5] = Maximum drug flux by PAMPA; type: ADME
Cathepsin D = Cathepsin D (Homo sapiens, UniProt P07339); assay: Inhibition of cathepsin D
[6] = Genotoxicity in Salmonella Typhimurium by Ames test in presence of S9 liver microsomes; type: toxicity, Microsome; details: salmonella enterica subsp. enterica serovar typhimurium
[7] = Half life in rat liver microsomes; type: ADME, Microsome
[8] = Half life in human liver microsomes; type: ADME, Microsome
Beta-secretase 2 = target: T2, Beta-secretase 2 (Homo sapiens, UniProt Q9Y5Z0); assay: Inhibition of human BACE2
T2 sequence (Q9Y5Z0 whole entry): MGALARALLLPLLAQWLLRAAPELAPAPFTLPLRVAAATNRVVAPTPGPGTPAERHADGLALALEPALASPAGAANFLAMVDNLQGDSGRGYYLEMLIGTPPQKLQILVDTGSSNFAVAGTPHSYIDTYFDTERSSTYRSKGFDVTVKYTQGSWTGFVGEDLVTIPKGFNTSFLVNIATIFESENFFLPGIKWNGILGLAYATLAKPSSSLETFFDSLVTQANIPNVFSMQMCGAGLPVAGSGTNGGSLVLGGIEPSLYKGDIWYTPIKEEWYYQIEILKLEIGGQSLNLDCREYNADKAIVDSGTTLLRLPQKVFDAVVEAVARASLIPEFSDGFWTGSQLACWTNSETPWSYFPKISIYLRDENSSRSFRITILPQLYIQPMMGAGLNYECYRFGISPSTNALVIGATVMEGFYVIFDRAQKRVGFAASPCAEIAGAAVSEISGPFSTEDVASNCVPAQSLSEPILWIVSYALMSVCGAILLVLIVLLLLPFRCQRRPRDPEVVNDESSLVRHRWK

T1 sequence (P56817 whole entry): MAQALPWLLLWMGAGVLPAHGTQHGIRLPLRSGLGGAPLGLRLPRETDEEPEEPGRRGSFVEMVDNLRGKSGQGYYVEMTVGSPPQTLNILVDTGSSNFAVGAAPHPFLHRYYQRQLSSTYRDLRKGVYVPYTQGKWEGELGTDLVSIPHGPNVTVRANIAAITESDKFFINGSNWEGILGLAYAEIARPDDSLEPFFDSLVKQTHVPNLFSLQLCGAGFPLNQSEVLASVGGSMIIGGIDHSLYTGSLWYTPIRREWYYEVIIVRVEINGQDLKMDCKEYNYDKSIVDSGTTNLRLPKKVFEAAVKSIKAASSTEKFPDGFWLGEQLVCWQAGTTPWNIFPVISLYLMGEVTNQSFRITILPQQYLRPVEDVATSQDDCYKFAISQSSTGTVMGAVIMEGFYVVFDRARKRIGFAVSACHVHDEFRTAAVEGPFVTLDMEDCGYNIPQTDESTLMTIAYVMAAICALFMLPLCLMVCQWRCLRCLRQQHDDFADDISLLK
Cathepsin D, sequence (P07339 65-162 limits assumed): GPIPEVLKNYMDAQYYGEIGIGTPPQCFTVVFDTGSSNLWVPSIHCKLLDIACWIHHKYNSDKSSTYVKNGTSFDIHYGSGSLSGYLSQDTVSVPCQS
Cathepsin D, sequence (P07339 169-412 limits assumed): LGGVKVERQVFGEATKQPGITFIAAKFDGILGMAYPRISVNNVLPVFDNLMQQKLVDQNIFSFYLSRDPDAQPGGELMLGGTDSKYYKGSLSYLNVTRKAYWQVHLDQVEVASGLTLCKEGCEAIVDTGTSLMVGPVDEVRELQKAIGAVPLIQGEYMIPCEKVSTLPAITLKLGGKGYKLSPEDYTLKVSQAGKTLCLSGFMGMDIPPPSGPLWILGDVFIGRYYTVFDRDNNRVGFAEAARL
Voltage-gated inwardly rectifying potassium channel KCNH2, sequence (Q12809 whole entry): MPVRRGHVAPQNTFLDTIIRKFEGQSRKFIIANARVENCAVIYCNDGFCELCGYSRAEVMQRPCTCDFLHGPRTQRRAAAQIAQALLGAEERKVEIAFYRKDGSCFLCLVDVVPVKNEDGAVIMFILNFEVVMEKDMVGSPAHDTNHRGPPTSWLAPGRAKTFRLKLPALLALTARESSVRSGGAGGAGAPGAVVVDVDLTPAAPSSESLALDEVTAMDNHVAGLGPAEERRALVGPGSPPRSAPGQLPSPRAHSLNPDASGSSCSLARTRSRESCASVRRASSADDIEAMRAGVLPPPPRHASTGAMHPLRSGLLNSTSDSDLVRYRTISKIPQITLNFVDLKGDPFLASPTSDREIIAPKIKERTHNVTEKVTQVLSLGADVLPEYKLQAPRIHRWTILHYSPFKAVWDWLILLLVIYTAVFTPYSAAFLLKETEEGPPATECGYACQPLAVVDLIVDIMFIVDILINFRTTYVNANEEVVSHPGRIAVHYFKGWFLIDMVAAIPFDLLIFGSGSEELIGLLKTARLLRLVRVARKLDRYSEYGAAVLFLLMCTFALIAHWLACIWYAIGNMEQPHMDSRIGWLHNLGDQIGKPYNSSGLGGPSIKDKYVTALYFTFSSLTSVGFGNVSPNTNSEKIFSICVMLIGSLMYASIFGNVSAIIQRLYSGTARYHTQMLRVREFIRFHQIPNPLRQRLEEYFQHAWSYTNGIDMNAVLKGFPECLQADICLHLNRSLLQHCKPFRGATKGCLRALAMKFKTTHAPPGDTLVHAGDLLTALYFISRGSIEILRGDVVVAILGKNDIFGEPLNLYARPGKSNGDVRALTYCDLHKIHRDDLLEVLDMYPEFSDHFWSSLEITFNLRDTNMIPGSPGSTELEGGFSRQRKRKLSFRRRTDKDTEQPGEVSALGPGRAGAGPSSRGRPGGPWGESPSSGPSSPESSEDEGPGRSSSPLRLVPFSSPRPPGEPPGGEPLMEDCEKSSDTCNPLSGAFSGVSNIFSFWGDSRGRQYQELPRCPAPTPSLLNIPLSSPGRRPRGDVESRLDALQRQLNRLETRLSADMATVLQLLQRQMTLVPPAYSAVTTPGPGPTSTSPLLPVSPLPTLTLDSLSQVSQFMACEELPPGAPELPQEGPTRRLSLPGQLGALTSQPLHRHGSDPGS

Compound	pIC50 (Beta-secretase 1 [2])	other results
Nc1nc2ccc(Cl)cc2[nH]1	3.14	inhibition (Beta-secretase 1 [1]): 34%
CC[C@@H](CC(=O)NCc1ccccn1)n1c(N)nc2cc(Cl)ccc21	< 3.00	
CC(C)C[C@@H](CC(=O)NC(C)C)n1c(N)nc2cc(Cl)ccc21	3.61	
Nc1nc2cc(Cl)ccc2n1CCCO	3.11	inhibition (Beta-secretase 1 [1]): 63%
Nc1nc2cc(Cl)ccc2n1CCCC(=O)NCc1ccccn1	3.37	
CC[C@@H](CC(=O)NCc1cccc(F)c1)n1c(N)nc2cc(Cl)ccc21	3.47	
Nc1nc2cc(Cl)ccc2n1CCCC(=O)NCCN1CCOCC1	3.08	
CN1CCC(NC(=O)CCCn2c(N)nc3cc(Cl)ccc32)CC1	3.49	
c1cnc2ncc(-c3ccncc3)n2c1	3.00	inhibition (Beta-secretase 1 [1]): 20%
Nc1nc2cc(Cl)ccc2n1CCCC(=O)NCc1ccccc1	2.85	
CC[C@@H](CC(=O)N(C)CC1CCCCC1)n1c(N)nc2cc(Cl)ccc21	3.43	
Nc1nc2cc(Cl)ccc2n1CCCC(=O)NCc1cccc(F)c1	3.60	
CC[C@@H](CC(=O)NC(C)C)n1c(N)nc2cc(Cl)ccc21	3.16	
CC[C@@H](CC(=O)NCC1CCOCC1)n1c(N)nc2cc(Cl)ccc21	< 3.00	
CC[C@@H](CC(=O)NCCN1CCOCC1)n1c(N)nc2cc(Cl)ccc21	3.36	
CC(C)C[C@H](CC(=O)NC(C)C)n1c(N)nc2cc(Cl)ccc21	< 3.00	
CC[C@@H](CC(=O)NCCC1CCNC1)n1c(N)nc2cc(Cl)ccc21 (stereo not given in full)	3.57	
CC[C@@H](CC(=O)NCC1CCCCC1)n1c(N)nc2cc(Cl)ccc21		pIC50 [3]: 5.12; Activity [4]: Non-toxic; Activity [5]: 12%; pIC50 (Cathepsin D): 4.38; Activity [6]: Non-toxic; half-life [7]: 6.7 min; half-life [8]: 5.5 min; pIC50 (Beta-secretase 2): 5.10
Nc1nc2cc(Cl)ccc2n1CCCC(=O)NCC1CC1	2.54	
COn1c(-c2ccccc2)nc2ncccc21	3.03	inhibition (Beta-secretase 1 [1]): 36%
O=C1c2ccccc2C(=O)C1(O)O	3.11	inhibition (Beta-secretase 1 [1]): 27%
Nc1nc2cc(Cl)ccc2n1CCCC(=O)NCCC1CCNC1 (stereo not given)	3.35	
CC[C@@H](CC(=O)NCc1ccc(F)cc1)n1c(N)nc2cc(Cl)ccc21	3.58	
Clc1cccc(-c2cnc3ncccn23)c1	3.06	inhibition (Beta-secretase 1 [1]): 29%
CC[C@H](CC(=O)NCc1ccccc1)n1c(N)nc2cc(Cl)ccc21	3.29	

Now from value to compound, other results behind:

pIC50 (Beta-secretase 1 [2])	Compound	other results
4.06	CC[C@@H](CC(=O)N[C@@H](COC(C)(C)C)C(=O)O)n1c(N)nc2cc(Cl)ccc21	
3.77	CC[C@@H](CC(=O)N[C@@H](COC(C)(C)C)C(=O)OC)n1c(N)nc2cc(Cl)ccc21	
3.61	CC[C@@H](CC(=O)NCC1CC1)n1c(N)nc2cc(Cl)ccc21	
4.14	CC[C@@H](CC(=O)NCc1ccccc1)n1c(N)nc2cc(Cl)ccc21	
3.63	CC(C)C[C@@H](CC(=O)NCc1ccccn1)n1c(N)nc2cc(Cl)ccc21	
4.23	CN(CC1CCCCC1)C(=O)CCCn1c(N)nc2cc(Cl)ccc21	
3.71	CN(Cc1cccc(F)c1)C(=O)CCCn1c(N)nc2cc(Cl)ccc21	
4.12	CC[C@@H](CC(=O)N[C@H](COC(C)(C)C)C(=O)OC)n1c(N)nc2cc(Cl)ccc21	
4.08	Nc1nc2cc(Cl)ccc2n1CCCC(=O)NCC1CCCCC1	
3.71	CC(C)NC(=O)CCCn1c(N)nc2cc(Cl)ccc21	
4.27	CC(C)C[C@@H](CC(=O)NCc1cccc(F)c1)n1c(N)nc2cc(Cl)ccc21	
4.02	CC[C@@H](CC(=O)NCCC(C)(C)C)n1c(N)nc2cc(Cl)ccc21	
